What is called residual activity is the signal under treatment as a percentage of the control signal.

Chain of CSNK1G3 (human) (Q9Y6M4 whole entry, looked up): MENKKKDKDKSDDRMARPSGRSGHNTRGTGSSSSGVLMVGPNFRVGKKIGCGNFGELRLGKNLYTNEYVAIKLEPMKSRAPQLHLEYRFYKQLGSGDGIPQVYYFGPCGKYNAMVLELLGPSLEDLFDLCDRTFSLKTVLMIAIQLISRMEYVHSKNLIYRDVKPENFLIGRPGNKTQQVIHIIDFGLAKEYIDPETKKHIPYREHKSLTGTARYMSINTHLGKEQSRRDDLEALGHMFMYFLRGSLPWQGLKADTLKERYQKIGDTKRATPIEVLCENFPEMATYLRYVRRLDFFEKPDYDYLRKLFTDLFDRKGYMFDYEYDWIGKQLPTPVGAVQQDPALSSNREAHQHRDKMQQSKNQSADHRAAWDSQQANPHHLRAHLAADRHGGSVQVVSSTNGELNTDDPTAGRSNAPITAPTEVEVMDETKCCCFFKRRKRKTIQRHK
Chain of MAP3K3 (human) (Q99759 whole entry, looked up): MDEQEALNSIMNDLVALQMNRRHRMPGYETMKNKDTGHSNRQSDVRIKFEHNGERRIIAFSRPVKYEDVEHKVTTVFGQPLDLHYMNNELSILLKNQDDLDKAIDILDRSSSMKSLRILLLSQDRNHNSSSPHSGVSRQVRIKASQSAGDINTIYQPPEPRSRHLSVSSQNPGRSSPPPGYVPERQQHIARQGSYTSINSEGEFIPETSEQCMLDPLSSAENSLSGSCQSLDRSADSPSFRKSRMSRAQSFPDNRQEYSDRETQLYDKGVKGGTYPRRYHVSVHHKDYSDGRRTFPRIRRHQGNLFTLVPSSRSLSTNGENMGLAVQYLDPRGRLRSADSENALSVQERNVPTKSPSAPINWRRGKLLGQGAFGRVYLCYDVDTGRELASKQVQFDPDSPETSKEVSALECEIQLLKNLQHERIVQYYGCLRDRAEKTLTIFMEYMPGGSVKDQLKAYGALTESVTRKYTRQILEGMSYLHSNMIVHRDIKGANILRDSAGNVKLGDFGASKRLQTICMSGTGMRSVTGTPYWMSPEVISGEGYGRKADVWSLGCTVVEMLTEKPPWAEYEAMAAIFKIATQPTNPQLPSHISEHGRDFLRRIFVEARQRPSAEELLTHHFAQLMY

For one test, the target named is ALK (human) (UniProt Q9UM73). The experiment in a line: radiometric filter-binding kinase assay, Kinase HotSpot. The following applies: compound 0.5 µM; ATP 10 µM.
Consider `CCn1cnc2c(Nc3cccc(Cl)c3)nc(N[C@@H]3CCCC[C@@H]3N)nc21`, for which the residual activity came to 92.3%.

As to `CN(C)C[C@H]1CCn2c(c(C3=C(c4cn(C)c5ccccc45)C(=O)NC3=O)c3ccccc32)C1`, the residual activity is 99.6%.

For `Cn1nc2c3c(cccc31)C(=O)c1ccccc1-2`, the residual activity was 87.4%.

In another test the target is MAPK13 (human) (UniProt O15264). Described as above. The settings on record: compound 0.5 µM; ATP 10 µM.
Chain of MAPK13 (human) (O15264 whole entry, looked up): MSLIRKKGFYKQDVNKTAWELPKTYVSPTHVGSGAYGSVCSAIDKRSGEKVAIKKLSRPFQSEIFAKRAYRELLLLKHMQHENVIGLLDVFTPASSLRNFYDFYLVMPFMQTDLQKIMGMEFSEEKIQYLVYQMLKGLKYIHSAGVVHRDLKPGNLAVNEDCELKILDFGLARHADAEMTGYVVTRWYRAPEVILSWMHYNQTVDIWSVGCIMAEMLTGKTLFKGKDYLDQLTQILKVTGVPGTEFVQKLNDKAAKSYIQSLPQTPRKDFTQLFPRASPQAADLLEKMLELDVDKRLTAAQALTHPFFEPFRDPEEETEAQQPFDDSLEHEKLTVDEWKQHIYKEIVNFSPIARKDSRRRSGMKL
As to `CCn1cnc2c(Nc3cccc(Cl)c3)nc(N[C@@H]3CCCC[C@@H]3N)nc21`, the residual activity came to 102%.

As for `CN(C)C[C@H]1CCn2c(c(C3=C(c4cn(C)c5ccccc45)C(=O)NC3=O)c3ccccc32)C1`, the residual activity is 117%.

With `Cn1nc2c3c(cccc31)C(=O)c1ccccc1-2`, the residual activity was found to be 106%.

For the next test, the target named is TYK2 JH1 catalytic (human) (UniProt P29597). Described as above. The following applies: compound 0.5 µM; ATP 10 µM.
For `CCn1cnc2c(Nc3cccc(Cl)c3)nc(N[C@@H]3CCCC[C@@H]3N)nc21`, the residual activity was 110%.

`CN(C)C[C@H]1CCn2c(c(C3=C(c4cn(C)c5ccccc45)C(=O)NC3=O)c3ccccc32)C1`: the residual activity worked out at 104%.

`Cn1nc2c3c(cccc31)C(=O)c1ccccc1-2`: the residual activity was 89.4%.

Another test concerns the target MKNK2 (human) (UniProt Q9HBH9). Described as above. The settings on record: compound 0.5 µM; ATP 10 µM.
As for `CCn1cnc2c(Nc3cccc(Cl)c3)nc(N[C@@H]3CCCC[C@@H]3N)nc21`, the residual activity is 93.5%.

Take `CN(C)C[C@H]1CCn2c(c(C3=C(c4cn(C)c5ccccc45)C(=O)NC3=O)c3ccccc32)C1`: the residual activity came out at 85.8%.

Turning to `Cn1nc2c3c(cccc31)C(=O)c1ccccc1-2`, the residual activity was 94.1%.

A further test concerns the target EPHA7 (human) (UniProt Q15375). Described as above. The following applies: compound 0.5 µM; ATP 10 µM.
As to `CCn1cnc2c(Nc3cccc(Cl)c3)nc(N[C@@H]3CCCC[C@@H]3N)nc21`, the residual activity worked out at 87.6%.

As to `CN(C)C[C@H]1CCn2c(c(C3=C(c4cn(C)c5ccccc45)C(=O)NC3=O)c3ccccc32)C1`, the residual activity is 96.9%.

As for `Cn1nc2c3c(cccc31)C(=O)c1ccccc1-2`, the residual activity worked out at 104%.

For the next test, the target named is DDR2 (human) (UniProt Q16832). Described as above. The following applies: compound 0.5 µM; ATP 10 µM.
Chain of DDR2 (human) (Q16832 whole entry, looked up): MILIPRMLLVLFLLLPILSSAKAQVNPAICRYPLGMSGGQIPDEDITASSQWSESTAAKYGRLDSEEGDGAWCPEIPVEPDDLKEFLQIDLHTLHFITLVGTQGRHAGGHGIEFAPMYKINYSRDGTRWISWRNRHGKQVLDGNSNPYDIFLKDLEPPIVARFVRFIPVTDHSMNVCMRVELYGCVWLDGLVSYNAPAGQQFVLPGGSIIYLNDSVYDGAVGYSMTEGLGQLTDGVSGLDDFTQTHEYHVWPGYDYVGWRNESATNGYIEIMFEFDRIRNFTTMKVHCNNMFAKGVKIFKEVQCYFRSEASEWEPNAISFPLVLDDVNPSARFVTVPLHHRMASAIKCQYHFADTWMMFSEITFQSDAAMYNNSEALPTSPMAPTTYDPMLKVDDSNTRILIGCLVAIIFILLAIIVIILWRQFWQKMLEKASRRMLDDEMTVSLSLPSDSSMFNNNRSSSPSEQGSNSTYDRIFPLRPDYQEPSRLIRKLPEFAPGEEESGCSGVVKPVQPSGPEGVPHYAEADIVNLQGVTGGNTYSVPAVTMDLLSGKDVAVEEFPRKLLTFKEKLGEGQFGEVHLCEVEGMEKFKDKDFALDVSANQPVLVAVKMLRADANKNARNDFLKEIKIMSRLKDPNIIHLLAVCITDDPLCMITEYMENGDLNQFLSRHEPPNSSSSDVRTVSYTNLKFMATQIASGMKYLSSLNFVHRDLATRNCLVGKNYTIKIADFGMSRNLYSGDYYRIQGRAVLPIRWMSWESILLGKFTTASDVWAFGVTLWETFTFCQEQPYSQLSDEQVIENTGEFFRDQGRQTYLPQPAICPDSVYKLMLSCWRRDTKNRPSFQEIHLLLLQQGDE
As for `CCn1cnc2c(Nc3cccc(Cl)c3)nc(N[C@@H]3CCCC[C@@H]3N)nc21`, the residual activity was 97.2%.

As to `CN(C)C[C@H]1CCn2c(c(C3=C(c4cn(C)c5ccccc45)C(=O)NC3=O)c3ccccc32)C1`, the residual activity came to 96%.

`Cn1nc2c3c(cccc31)C(=O)c1ccccc1-2`: the residual activity is 95.1%.

The target in another test is RAF1 (human) (UniProt P04049). The test is described as above. The settings on record: compound 0.5 µM; ATP 10 µM.
Consider `CCn1cnc2c(Nc3cccc(Cl)c3)nc(N[C@@H]3CCCC[C@@H]3N)nc21`, for which the residual activity turned out to be 92.8%.

For `CN(C)C[C@H]1CCn2c(c(C3=C(c4cn(C)c5ccccc45)C(=O)NC3=O)c3ccccc32)C1`, the residual activity was determined as 96.6%.

Consider `Cn1nc2c3c(cccc31)C(=O)c1ccccc1-2`, for which the residual activity is 87%.

The next test concerns the target MAP3K5 (human) (UniProt Q99683). Described as above. The following applies: compound 0.5 µM; ATP 10 µM.
As to `CCn1cnc2c(Nc3cccc(Cl)c3)nc(N[C@@H]3CCCC[C@@H]3N)nc21`, the residual activity is 103%.

In the case of `CN(C)C[C@H]1CCn2c(c(C3=C(c4cn(C)c5ccccc45)C(=O)NC3=O)c3ccccc32)C1`, the residual activity was found to be 107%.

For the compound `Cn1nc2c3c(cccc31)C(=O)c1ccccc1-2`, the residual activity was 93.1%.

The target of the next test is PIM3 (human) (UniProt Q86V86). Described as above. The following applies: compound 0.5 µM; ATP 10 µM.
Take `CCn1cnc2c(Nc3cccc(Cl)c3)nc(N[C@@H]3CCCC[C@@H]3N)nc21`: the residual activity worked out at 34.7%.

For `CN(C)C[C@H]1CCn2c(c(C3=C(c4cn(C)c5ccccc45)C(=O)NC3=O)c3ccccc32)C1`, the residual activity was 83.1%.

In the case of `Cn1nc2c3c(cccc31)C(=O)c1ccccc1-2`, the residual activity worked out at 76.8%.

The target in the next test is PRKCD (human) (UniProt Q05655). The test is described as above. The settings on record: compound 0.5 µM; ATP 10 µM.
Regarding `CCn1cnc2c(Nc3cccc(Cl)c3)nc(N[C@@H]3CCCC[C@@H]3N)nc21`, the residual activity is 91.2%.

With `CN(C)C[C@H]1CCn2c(c(C3=C(c4cn(C)c5ccccc45)C(=O)NC3=O)c3ccccc32)C1`, the residual activity was determined as 8.11%.

In the case of `Cn1nc2c3c(cccc31)C(=O)c1ccccc1-2`, the residual activity is 92.3%.

The target in another test is CDK1 CCNB1 (human) (UniProt P06493+P14635). The test is described as above. The settings on record: compound 0.5 µM; ATP 10 µM.
Chain of CDK1 CCNB1 (human) (P06493 whole entry, looked up): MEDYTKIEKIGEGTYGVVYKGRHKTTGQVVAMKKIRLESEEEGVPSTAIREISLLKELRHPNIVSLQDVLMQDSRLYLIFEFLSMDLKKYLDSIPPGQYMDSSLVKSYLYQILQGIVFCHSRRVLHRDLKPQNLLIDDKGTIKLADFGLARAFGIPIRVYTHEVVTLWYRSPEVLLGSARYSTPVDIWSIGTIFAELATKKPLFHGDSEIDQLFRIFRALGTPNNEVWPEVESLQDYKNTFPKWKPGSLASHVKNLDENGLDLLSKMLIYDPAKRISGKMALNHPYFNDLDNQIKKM
Chain of CDK1 CCNB1 (human) (P14635 whole entry, looked up): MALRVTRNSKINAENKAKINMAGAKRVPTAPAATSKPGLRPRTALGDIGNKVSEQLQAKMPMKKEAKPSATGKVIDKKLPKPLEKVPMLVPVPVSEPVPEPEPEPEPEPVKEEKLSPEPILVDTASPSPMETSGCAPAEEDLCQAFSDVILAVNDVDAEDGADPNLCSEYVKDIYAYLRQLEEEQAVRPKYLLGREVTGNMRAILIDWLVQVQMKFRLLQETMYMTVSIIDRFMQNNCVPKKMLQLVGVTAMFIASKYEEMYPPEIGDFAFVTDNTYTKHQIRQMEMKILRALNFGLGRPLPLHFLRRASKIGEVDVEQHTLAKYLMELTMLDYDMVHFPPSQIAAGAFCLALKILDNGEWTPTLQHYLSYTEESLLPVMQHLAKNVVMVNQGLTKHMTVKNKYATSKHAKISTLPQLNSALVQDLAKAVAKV
On to `CCn1cnc2c(Nc3cccc(Cl)c3)nc(N[C@@H]3CCCC[C@@H]3N)nc21`, for which the residual activity stood at 16.4%.

In the case of `CN(C)C[C@H]1CCn2c(c(C3=C(c4cn(C)c5ccccc45)C(=O)NC3=O)c3ccccc32)C1`, the residual activity stood at 53.7%.

In the case of `Cn1nc2c3c(cccc31)C(=O)c1ccccc1-2`, the residual activity came out at 108%.

The target in the next test is AKT1 (human) (UniProt P31749). The description is as above. The following applies: compound 0.5 µM; ATP 10 µM.
Chain of AKT1 (human) (P31749 whole entry, looked up): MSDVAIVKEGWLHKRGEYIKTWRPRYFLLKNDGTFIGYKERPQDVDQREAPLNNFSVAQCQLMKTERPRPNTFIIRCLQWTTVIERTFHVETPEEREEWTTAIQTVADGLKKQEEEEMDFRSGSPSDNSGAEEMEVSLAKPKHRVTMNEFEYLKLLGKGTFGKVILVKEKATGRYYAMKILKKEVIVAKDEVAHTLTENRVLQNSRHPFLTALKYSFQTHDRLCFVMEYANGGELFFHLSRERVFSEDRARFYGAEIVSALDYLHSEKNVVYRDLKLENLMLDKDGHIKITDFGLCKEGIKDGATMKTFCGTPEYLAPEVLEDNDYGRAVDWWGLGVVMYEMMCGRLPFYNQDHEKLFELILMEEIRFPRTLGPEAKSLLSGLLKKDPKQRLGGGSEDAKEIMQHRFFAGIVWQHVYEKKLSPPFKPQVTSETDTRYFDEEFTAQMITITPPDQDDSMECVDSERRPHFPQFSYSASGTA
On to `CCn1cnc2c(Nc3cccc(Cl)c3)nc(N[C@@H]3CCCC[C@@H]3N)nc21`, for which the residual activity turned out to be 108%.

`CN(C)C[C@H]1CCn2c(c(C3=C(c4cn(C)c5ccccc45)C(=O)NC3=O)c3ccccc32)C1`: the residual activity was 98.7%.

`Cn1nc2c3c(cccc31)C(=O)c1ccccc1-2`: the residual activity was found to be 99.1%.

The next test has as its target CSNK1G3 (human) (UniProt Q9Y6M4). Described as above. The following applies: compound 0.5 µM; ATP 10 µM.
For the compound `CCn1cnc2c(Nc3cccc(Cl)c3)nc(N[C@@H]3CCCC[C@@H]3N)nc21`, the residual activity is 45.9%.

With `CN(C)C[C@H]1CCn2c(c(C3=C(c4cn(C)c5ccccc45)C(=O)NC3=O)c3ccccc32)C1`, the residual activity is 104%.

Take `Cn1nc2c3c(cccc31)C(=O)c1ccccc1-2`: the residual activity is 81.4%.

In another test the target is IGF1R (human) (UniProt P08069). The description is as above. The following applies: compound 0.5 µM; ATP 10 µM.
`CCn1cnc2c(Nc3cccc(Cl)c3)nc(N[C@@H]3CCCC[C@@H]3N)nc21`: the residual activity was determined as 51.8%.

With `CN(C)C[C@H]1CCn2c(c(C3=C(c4cn(C)c5ccccc45)C(=O)NC3=O)c3ccccc32)C1`, the residual activity came to 101%.

As to `Cn1nc2c3c(cccc31)C(=O)c1ccccc1-2`, the residual activity amounted to 95.9%.

The target of the next test is PAK4 (human) (UniProt O96013). The description is as above. The following applies: compound 0.5 µM; ATP 10 µM.
In the case of `CCn1cnc2c(Nc3cccc(Cl)c3)nc(N[C@@H]3CCCC[C@@H]3N)nc21`, the residual activity came to 84.5%.

For the compound `CN(C)C[C@H]1CCn2c(c(C3=C(c4cn(C)c5ccccc45)C(=O)NC3=O)c3ccccc32)C1`, the residual activity amounted to 104%.

With `Cn1nc2c3c(cccc31)C(=O)c1ccccc1-2`, the residual activity stood at 90.4%.

The next test concerns the target MAP3K3 (human) (UniProt Q99759). Described as above. The following applies: compound 0.5 µM; ATP 10 µM.
Regarding `CCn1cnc2c(Nc3cccc(Cl)c3)nc(N[C@@H]3CCCC[C@@H]3N)nc21`, the residual activity was found to be 103%.

In the case of `CN(C)C[C@H]1CCn2c(c(C3=C(c4cn(C)c5ccccc45)C(=O)NC3=O)c3ccccc32)C1`, the residual activity amounted to 86.1%.

As for `Cn1nc2c3c(cccc31)C(=O)c1ccccc1-2`, the residual activity came out at 94.4%.

The target in a further test is PRKG2 (human) (UniProt Q13237). Described as above. The settings on record: compound 0.5 µM; ATP 10 µM.
With `CCn1cnc2c(Nc3cccc(Cl)c3)nc(N[C@@H]3CCCC[C@@H]3N)nc21`, the residual activity came out at 74.3%.

On to `CN(C)C[C@H]1CCn2c(c(C3=C(c4cn(C)c5ccccc45)C(=O)NC3=O)c3ccccc32)C1`, for which the residual activity is 90.7%.

Regarding `Cn1nc2c3c(cccc31)C(=O)c1ccccc1-2`, the residual activity came to 105%.

Another test deals with NTRK2 (human) (UniProt Q16620). The test is described as above. The settings on record: compound 0.5 µM; ATP 10 µM.
For the compound `CCn1cnc2c(Nc3cccc(Cl)c3)nc(N[C@@H]3CCCC[C@@H]3N)nc21`, the residual activity came to 55.3%.

`CN(C)C[C@H]1CCn2c(c(C3=C(c4cn(C)c5ccccc45)C(=O)NC3=O)c3ccccc32)C1`: the residual activity stood at 102%.

Take `Cn1nc2c3c(cccc31)C(=O)c1ccccc1-2`: the residual activity was 84%.

For the next test, the target named is CDK1 CCNA2 (human) (UniProt P06493+P20248). The test is described as above. The settings on record: compound 0.5 µM; ATP 10 µM.
Chain of CDK1 CCNA2 (human) (P06493 whole entry, looked up): as the sequence (P06493 whole entry, looked up) above
Chain of CDK1 CCNA2 (human) (P20248 whole entry, looked up): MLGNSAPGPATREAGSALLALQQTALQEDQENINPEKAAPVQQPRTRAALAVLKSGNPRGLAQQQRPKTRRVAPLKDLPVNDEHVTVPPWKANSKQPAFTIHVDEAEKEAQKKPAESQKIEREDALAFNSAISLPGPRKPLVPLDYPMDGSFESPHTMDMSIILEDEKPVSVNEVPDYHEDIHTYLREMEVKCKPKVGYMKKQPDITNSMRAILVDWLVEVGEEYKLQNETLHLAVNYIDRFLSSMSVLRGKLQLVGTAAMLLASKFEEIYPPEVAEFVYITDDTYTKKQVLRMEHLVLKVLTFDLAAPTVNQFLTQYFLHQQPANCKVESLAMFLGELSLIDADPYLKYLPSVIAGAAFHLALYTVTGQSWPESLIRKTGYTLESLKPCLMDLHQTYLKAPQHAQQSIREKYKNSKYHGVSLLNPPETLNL
As for `CCn1cnc2c(Nc3cccc(Cl)c3)nc(N[C@@H]3CCCC[C@@H]3N)nc21`, the residual activity amounted to 60.7%.

For the compound `CN(C)C[C@H]1CCn2c(c(C3=C(c4cn(C)c5ccccc45)C(=O)NC3=O)c3ccccc32)C1`, the residual activity worked out at 67.8%.

Turning to `Cn1nc2c3c(cccc31)C(=O)c1ccccc1-2`, the residual activity is 88%.

In another test the target is FGR (human) (UniProt P09769). The description is as above. The settings on record: compound 0.5 µM; ATP 10 µM.
On to `CCn1cnc2c(Nc3cccc(Cl)c3)nc(N[C@@H]3CCCC[C@@H]3N)nc21`, for which the residual activity came to 45.8%.

Turning to `CN(C)C[C@H]1CCn2c(c(C3=C(c4cn(C)c5ccccc45)C(=O)NC3=O)c3ccccc32)C1`, the residual activity was 97.2%.

Consider `Cn1nc2c3c(cccc31)C(=O)c1ccccc1-2`, for which the residual activity worked out at 93.4%.

The next test deals with RPS6KA5 KD2 (human) (UniProt O75582). The description is as above. The settings on record: compound 0.5 µM; ATP 10 µM.
With `CCn1cnc2c(Nc3cccc(Cl)c3)nc(N[C@@H]3CCCC[C@@H]3N)nc21`, the residual activity is 87.8%.
